Assay results published in ChEMBL document CHEMBL4342418, “1,2,3-Triazole-containing hybrids as potential anticancer agents: Current developments, action mechanisms and structure-activity relationships” (Eur J Med Chem, 2019).
Values after ≈ are worked out from the molar mass of the structure shown.

Columns and labels:
[1] = tested on: U-87 MG; assay: Antiproliferative activity against human U87MG cells assessed as reduction in cell viability after 48 hrs by MTT assay; assay type: functional, cell-based, U-87MG ATCC
[2] = tested on: A549; assay: Antiproliferative activity against human A549 cells assessed as reduction in cell viability after 48 hrs by MTT assay; assay type: functional, cell-based; conditions: A549, 48 h
[3] = tested on: HT-29; assay: Antiproliferative activity against human HT-29 cells assessed as reduction in cell viability after 48 hrs by MTT assay; assay type: functional, cell-based; conditions: HT-29, 48 h
[4] = tested on: PC-3; assay: cells; assay type: functional, cell-based; conditions: Homo sapiens, PC-3, 48 h
Description: Antiproliferative activity against human PC3 cells assessed as reduction in cell viability after 48 hrs by MTT assay

[5] = tested on: MCF7; assay: cells; assay type: functional, cell-based; conditions: Homo sapiens
Description: Antiproliferative activity against human MCF7 cells by MTT assay

[6] = tested on: HepG2; assay: Antiproliferative activity against human HepG2 cells by MTT assay; assay type: functional, cell-based
[7] = tested on: HCT-116; assay: Antiproliferative activity against human HCT116 cells by MTT assay; assay type: functional, cell-based
[8] = tested on: T47D; assay: Antiproliferative activity against human T47D cells assessed as reduction in cell viability after 72 hrs by MTT assay; assay type: functional, cell-based
[9] = tested on: MCF7; assay: Antiproliferative activity against human MCF7 cells assessed as reduction in cell viability after 72 hrs by MTT assay; assay type: functional, cell-based; conditions: MCF7, 72 h
[10] = tested on: C2C12; assay: Cytotoxicity against mouse C2C12 cells assessed as reduction in cell viability after 48 hrs by MTT assay; assay type: cell-based; conditions: C2C12, 48 h
[11] = tested on: MCF7; assay: Antiproliferative activity against human MCF7 cells assessed as reduction in cell viability after 48 hrs by MTT assay; assay type: functional, cell-based; conditions: MCF7, 48 h
[12] = tested on: HCT-116; assay: Antiproliferative activity against human HCT116 cells assessed as reduction in cell viability after 48 hrs by MTT assay; assay type: functional, cell-based; conditions: HCT-116, 48 h
[13] = tested on: SW480; assay: Antiproliferative activity against human SW480 cells assessed as reduction in cell viability after 48 hrs by MTT assay; assay type: functional, cell-based; conditions: SW480, 48 h
[14] = Antiproliferative activity against human SMCC7721 cells assessed as reduction in cell viability after 48 hrs by MTT assay; assay type: functional, cell-based
[15] = tested on: SUM-159-PT; assay: Antiproliferative activity against human SUM159 cells assessed as reduction in cell viability after 72 hrs by MTT assay; assay type: functional, cell-based
[16] = tested on: SK-BR-3; assay: Antiproliferative activity against human SKBR3 cells assessed as reduction in cell viability after 72 hrs by MTT assay; assay type: functional, cell-based; conditions: SK-BR-3, 72 h
[17] = tested on: KG-1a; assay: Antiproliferative activity against human KG1a cells assessed as reduction in cell viability after 72 hrs by MTT assay; assay type: functional, cell-based
[18] = tested on: T47D; assay: Antiproliferative activity against human T47D cells assessed as reduction in cell viability after 48 hrs by MTT assay; assay type: functional, cell-based
[19] = tested on: Caco-2; assay: Antiproliferative activity against human Caco2 cells assessed as reduction in cell viability after 48 hrs by MTT assay; assay type: functional, cell-based; conditions: Caco-2, 48 h
[20] = tested on: MDA-MB-231; assay: Antiproliferative activity against human MDA-MB-231 cells assessed as reduction in cell viability after 48 hrs by MTT assay; assay type: functional, cell-based; conditions: MDA-MB-231, 48 h
[21] = tested on: DU-145; assay: Antiproliferative activity against human DU145 cells assessed as reduction in cell viability after 48 hrs by MTT assay; assay type: functional, cell-based; conditions: DU-145, 48 h
[22] = tested on: HEK293; assay: Cytotoxicity against HEK293 cells assessed as reduction in cell viability after 48 hrs by MTT assay; assay type: cell-based; conditions: Homo sapiens, HEK293, 48 h
[23] = tested on: MDA-MB-231; assay: Antiproliferative activity against human MDA-MB-231 cells by SRB assay; assay type: functional
[24] = tested on: HepG2; assay: Antiproliferative activity against human HepG2 cells by SRB assay; assay type: functional, cell-based
[25] = tested on: HeLa; assay: Antiproliferative activity against human HeLa cells by SRB assay; assay type: functional, cell-based
[26] = tested on: DU-145; assay: Antiproliferative activity against human DU145 cells by SRB assay; assay type: functional, cell-based
[27] = tested on: A549; assay: Antiproliferative activity against human A549 cells by SRB assay; assay type: functional, cell-based
[28] = tested on: SK-N-SH; assay: Antiproliferative activity against human SK-N-SH cells by MTT assay; assay type: functional, cell-based
[29] = tested on: MGC-803; assay: Antiproliferative activity against human MGC803 cells by MTT assay; assay type: functional, cell-based

For `COc1ccc(Cn2cc(C(=O)c3cn(-c4ccccc4)nc3-c3ccc(Cl)cc3)nn2)cc1OC`, the IC50 [1] was 0.86 to 3.71 µM, the IC50 [2] was 0.86 to 3.71 µM and the IC50 [3] was 0.86 to 3.71 µM. It also gave an IC50 [4] of 0.86 to 3.71 µM.
For `COc1ccc(Cn2cc(C(=O)c3cn(-c4ccccc4)nc3-c3ccc(F)cc3)nn2)cc1OC`, the IC50 [1] was 0.86 to 3.71 µM, the IC50 [2] was 0.86 to 3.71 µM and the IC50 [3] was 0.86 to 3.71 µM. The IC50 [4] was 0.86 to 3.71 µM.
Work on `COc1ccc(-c2nn(-c3ccccc3)cc2C(=O)c2cn(Cc3ccc(OC)c(OC)c3)nn2)cc1` yielded an IC50 [1] of 0.86 to 3.71 µM, an IC50 [2] of 0.86 to 3.71 µM and an IC50 [3] of 0.86 to 3.71 µM. For the same compound, the IC50 [4] was 0.86 to 3.71 µM.
`CC(=O)N1N=C(c2nnn(-c3ccc(-n4nnc(C5=NN(C(C)=O)C(c6ccccc6)C5)c4C)cc3)c2C)CC1c1ccccc1` (configuration not stated) showed an IC50 [5] of 66.8 µg/mL (≈ 109 µM), an IC50 [6] of over 100 µg/mL and an IC50 [7] of over 100 µg/mL.
In the case of `O=C(NCc1cn(Cc2ccc(F)cc2)nn1)c1cc(-c2ccccc2)on1`, the GI50 [8] is reported as 27.7 to 85.7 µg/mL (≈ 73.4 to 227 µM) and the GI50 [9] is reported as 27.7 to 85.7 µg/mL (≈ 73.4 to 227 µM).
For `O=C(Nc1ccc(-n2cc(Oc3ccc(-c4cc(-c5ccc(Oc6cn(-c7ccc(NC(=O)[C@@H]8CCCN8)cc7)nn6)cc5)cc(-c5ccc(Oc6cn(-c7ccc(NC(=O)[C@@H]8CCCN8)cc7)nn6)cc5)c4)cc3)nn2)cc1)[C@@H]1CCCN1`, the IC50 [10] was over 40 µM, the IC50 [11] was 7.1 to 13.4 µM and the IC50 [12] was 7.1 to 13.4 µM.
With `COc1cc([C@@H]2c3cc4c(cc3[C@H](n3cc(CO[C@@H]5O[C@H](CO[C@@H]6O[C@H](CO)[C@@H](O)[C@H](O)[C@H]6O)[C@@H](O)[C@H](O)[C@H]5O)nn3)[C@H]3COC(=O)[C@H]23)OCO4)cc(OC)c1OC` the IC50 [2] was 0.67 to 7.41 µM, the IC50 [11] was 0.67 to 7.41 µM and the IC50 [13] was 0.67 to 7.41 µM. The IC50 [14] was 0.67 to 7.41 µM.
With `Fc1cccc(COc2ccc(Nc3ncnc4ccc(-n5cc(CN6CCCC6)nn5)cc34)cc2Cl)c1` the IC50 [15] was 2.06 to 7.47 µM, the IC50 [16] was 2.06 to 7.47 µM and the IC50 [17] was 2.06 to 7.47 µM.
For `O=C(Cn1cc(C(O)c2ccccc2)nn1)N1CCN(c2nc3ccccc3s2)CC1` (configuration not stated), the IC50 [18] was 33 to 154 µM, the IC50 [19] was 33 to 154 µM and the IC50 [11] was 33 to 154 µM. The IC50 [12] was 33 to 154 µM.
`CN(C)CCCOc1cc(C(=O)NCc2cn(-c3cccc(NC(=O)[C@@H]4CCCN4)c3)nn2)nc(C(=O)NCc2cn(-c3cccc(NC(=O)[C@H]4CCCN4)c3)nn2)c1` gave an IC50 [10] of over 40 µM, an IC50 [11] of 1.7 µM and an IC50 [12] of 1.3 µM.
`CN1CCN(Cc2cn(-c3ccc4ncnc(Nc5ccc(OCc6cccc(F)c6)c(Cl)c5)c4c3)nn2)CC1` gave an IC50 [15] of 2.06 to 7.47 µM, an IC50 [16] of 2.06 to 7.47 µM and an IC50 [17] of 2.06 to 7.47 µM.
Compound `CCCN1CCC(NCc2cn(-c3ccc4ncnc(Nc5ccc(OCc6cccc(F)c6)c(Cl)c5)c4c3)nn2)CC1` has an IC50 [15] of 2.06 to 7.47 µM, an IC50 [16] of 2.06 to 7.47 µM and an IC50 [17] of 2.06 to 7.47 µM.
Compound `COc1cc(-c2ccc(Cn3cc(C(=O)c4c(-c5ccccc5)nc5ccccn45)nn3)cc2)cc(OC)c1OC` has an IC50 [20] of 0.51 to 3.98 µM, an IC50 [2] of 0.51 to 3.98 µM and an IC50 [21] of 0.51 to 3.98 µM. The IC50 [12] was 0.51 to 3.98 µM and the IC50 [22] was 63.5 µM.
For `O=c1oc(-c2ccccc2)nn1Cc1cn(Cc2ccccc2)nn1`, the GI50 [23] was 0.82 to 2.39 µM, the GI50 [24] was 0.82 to 2.39 µM and the GI50 [25] was 0.82 to 2.39 µM. It also gave a GI50 [26] of 0.82 to 2.39 µM.
Work on `COc1ccc(/C=C/C(=O)c2cc(OC)c(OC)c(OC)c2)cc1OCc1cn(Cc2ccc(N)cc2)nn1` yielded a GI50 [27] of 1.3 to 8.2 µM, a GI50 [24] of 1.3 to 8.2 µM and a GI50 [25] of 1.3 to 8.2 µM. For the same compound, the GI50 [26] was 1.3 to 8.2 µM.
With `CN(C)CCCOc1cc(C(=O)NCc2cn(-c3ccc(NC(=O)[C@@H]4CCCN4)cc3)nn2)nc(C(=O)NCc2cn(-c3ccc(NC(=O)[C@H]4CCCN4)cc3)nn2)c1` the IC50 [10] was over 40 µM, the IC50 [11] was 14.4 µM and the IC50 [12] was 15.1 µM.
`Cc1c(C2=NN(C(=S)NCc3ccccc3)C(c3ccccc3)C2)nnn1-c1ccc(-n2nnc(C3=NN(C(=S)NCc4ccccc4)C(c4ccccc4)C3)c2C)cc1` (configuration not stated) showed an IC50 [5] of 43.5 µg/mL (≈ 52.6 µM), an IC50 [6] of over 100 µg/mL and an IC50 [7] of over 100 µg/mL.
Compound `COc1cc(/C=C/C(=O)c2ccc(OCCCn3cc(CSc4nnnn4C)nn3)cc2)cc(OC)c1OC` has an IC50 [28] of 1.52 to 10.4 µM, an IC50 [6] of 1.52 to 10.4 µM and an IC50 [29] of 1.52 to 10.4 µM.
